{
  "source": "patent US6432434B1",
  "about": "“Treatment of and/or prophylaxis against brain and spinal cord injury” (The United States of America as represented by the …, priority 1999, dated 2002)",
  "key": {"[1]": {"conditions": "man, cited from earlier work"}, "[2]": {"system": "ischemia-reperfusion injury", "conditions": "gerbil; cited from earlier work"}, "[3]": {"system": "ischemia-reperfusion injury", "conditions": "rat; cited from earlier work"}, "[4]": {"system": "NMDA and malonic acid lesions of striatum", "conditions": "rats; cited from earlier work"}, "[5]": {"system": "rats injected intrathecally with dynorphin A", "experiment": "Dynorphin A-induced paralysis in rats, neurological score", "assay_type": "in vivo, rat", "conditions": "n = 9, 5 μmoles DHL in DMSO intrathecally", "experimental": "Rats were injected with […] of dynorphin A in combination with DMSO (vehicle only) or dynorphin A (Dny) with 5 μmoles of dihydrolipoate in DMSO. The DMSO (control) and the DMSO with dihydrolipoate (DHL/DMSO) were administered as 2 hour pretreatment before administration of the dynorphin A and as cotreatment with dynorphin A. All rats were flaccidly paralyzed 10 minutes following dynorphin a injections. All injections were administered intrathecally."}, "[6]": {"conditions": "2 hrs, pretreatment and cotreatment with dynorphin A"}, "[7]": {"conditions": "24 hrs, pretreatment and cotreatment with dynorphin A"}},
  "note": "Where two headings read alike, the source gives them in different places.",
  "data": [
    {"smiles": "O=C(O)CCCCC1CCSS1", "note": "(stereo not drawn) [Alpha lipoic acid]", "values": [
      {"measurement": "Clinical safety / tolerability", "setting": "[1]", "value": "clinically safe"},
      {"measurement": "Clinical safety / tolerability", "setting": "[1]; listed as αLA", "value": "well tolerated"},
      {"measurement": "Neuroprotection against ischemia-reperfusion injury", "setting": "[2]", "value": "neuroprotective"},
      {"measurement": "Neuroprotection against ischemia-reperfusion injury", "setting": "[3]", "value": "neuroprotective"},
      {"measurement": "Effect against NMDA lesions of striatum", "setting": "[4]", "value": "effective"},
      {"measurement": "Effect against malonic acid lesions of striatum", "setting": "[4]", "value": "effective"}
    ]},
    {"smiles": "O=C(O)CCCC[C@@H](S)CCS", "note": "(racemic) [DHL, dihydrolipoic acid]", "values": [
      {"measurement": "Number of animals with neurological score 4 (normal)", "setting": "[5]; 2 hrs, 2 hour pretreatment and cotreatment with 20 μmoles dynorphin A, 4 normal, 0 flaccid paralysis", "value": 2},
      {"measurement": "Number of animals with neurological score 0 (flaccid paralysis)", "setting": "[5]; [6]", "value": 1},
      {"measurement": "Number of animals with neurological score 1", "setting": "[5]; [6]", "value": 1},
      {"measurement": "Number of animals with neurological score 2", "setting": "[5]; [6]", "value": 2},
      {"measurement": "Number of animals with neurological score 3", "setting": "[5]; [6]", "value": 3},
      {"measurement": "Number of animals with neurological score 1", "setting": "[5]; [7]", "value": 2},
      {"measurement": "Number of animals with neurological score 3", "setting": "[5]; [7]", "value": 3},
      {"measurement": "Number of animals with neurological score 4 (normal)", "setting": "[5]; [7]", "value": 4}
    ]}
  ]
}
